Measured values reported in US20250084128A1, “ANTIVIRAL […]-STAPLED SARS-CoV-2 PEPTIDE-C[…] USES THEREOF” (priority 2021, published 2025).
“Also recorded” adds a separate entry of the source.

Columns and labels:
Type in all cases: cell-based
live SARS-CoV-2 virus = tested on: live SARS-CoV-2 virus
[1] = tested on: pseudotyped SARS-CoV-2 virus
[2] = tested on: GFP-expressing SARS-CoV-1 (Urbani) pseudovirus

**Q.** How did the differential antiviral activity (live SARS-CoV-2 virus) turn out when “DISGINASVVNIQKEIDR8NEVAKNXNESLIDLQELGK [SEQ ID NO: 15]” was run?
**A.** The differential antiviral activity was “little to no activity”.

**Q.** For “DISGINASVVNIQKEID8LNEVAKXLNESLIDLQELGK [SEQ ID NO: 14]”, which differential antiviral activity (live SARS-CoV-2 virus) is on record?
**A.** The differential antiviral activity was “little to no activity”.

**Q.** With “DISGINASVVNIQKEIDRL8EVAKNLXESLIDLQELGK [SEQ ID NO: 16]” as the substance, how does the differential antiviral activity (live SARS-CoV-2 virus) read?
**A.** Its differential antiviral activity is “moderate activity”.

**Q.** With “DISGINASVVNIQK8IDRLNEXAKNLNESLIDLQELGK [SEQ ID NO: 11]” as the substance, how does the differential antiviral activity (live SARS-CoV-2 virus) read?
**A.** The differential antiviral activity was “little to no activity”.

**Q.** Which antiviral activity [1] does the source give for “DISGINASVVNIQKEI8RLNEVAXNLNESLIDLQELGK [SEQ ID NO: 13]” here?
**A.** The antiviral activity was “consistent antiviral activity”.

**Q.** And the antiviral activity [2]?
**A.** Its antiviral activity is “consistent antiviral activity”.

**Q.** What about the antiviral activity (live SARS-CoV-2 virus) of the same substance?
**A.** The antiviral activity was “consistent antiviral activity”.

**Q.** And the “antiviral activity, i, i+7 staple scan” value (live SARS-CoV-2 virus)?
**A.** Its value is “potent anti-viral activity; also recorded: among the most potent antiviral activity; also recorded: uniquely potent”.

**Q.** And the differential antiviral activity (live SARS-CoV-2 virus)?
**A.** Its differential antiviral activity is “moderate activity”.
